Assays:
[1] = tested on: Tyrosine-protein kinase ABL1 (Homo sapiens), P00519 [T315I]; conditions: Compound concentration 1000.0 nM
[2] = tested on: Tyrosine-protein kinase ABL1 (Homo sapiens), P00519 [Y253F]; conditions: Compound concentration 1000.0 nM
[3] = target: Activin receptor type-2A (Homo sapiens) (UniProt P27037); conditions: Compound concentration 1000.0 nM
[4] = target: Tyrosine-protein kinase CSK (Homo sapiens) (UniProt P41240); conditions: Compound concentration 1000.0 nM
[5] = target: Casein kinase I isoform gamma-2 (Homo sapiens) (UniProt P78368); conditions: Compound concentration 1000.0 nM
[6] = target: Serine/threonine-protein kinase DCLK1 (Homo sapiens) (UniProt O15075); conditions: Compound concentration 1000.0 nM
[7] = target: Epithelial discoidin domain-containing receptor 1 (Homo sapiens) (UniProt Q08345); conditions: Compound concentration 1000.0 nM
[8] = target: Receptor tyrosine-protein kinase erbB-2 (Homo sapiens) (UniProt P04626); conditions: Compound concentration 1000.0 nM
[9] = tested on: Receptor-type tyrosine-protein kinase FLT3 (Homo sapiens), P36888 [UNDEFINED MUTATION]; conditions: Compound concentration 1000.0 nM
[10] = target: Glycogen synthase kinase-3 alpha (Homo sapiens) (UniProt P49840); conditions: Compound concentration 1000.0 nM
[11] = target: Serine/threonine-protein kinase haspin (Homo sapiens) (UniProt Q8TF76); conditions: Compound concentration 1000.0 nM
[12] = target: Inhibitor of nuclear factor kappa-B kinase subunit beta (Homo sapiens) (UniProt O14920); conditions: Compound concentration 1000.0 nM
[13] = target: Insulin receptor (Homo sapiens) (UniProt P06213); conditions: Compound concentration 1000.0 nM
[14] = target: Mitogen-activated protein kinase kinase kinase 4 (Homo sapiens) (UniProt Q9Y6R4); conditions: Compound concentration 1000.0 nM
[15] = target: Mitogen-activated protein kinase kinase kinase kinase 3 (Homo sapiens) (UniProt Q8IVH8); conditions: Compound concentration 1000.0 nM
[16] = target: Microtubule-associated serine/threonine-protein kinase 1 (Homo sapiens) (UniProt Q9Y2H9); conditions: Compound concentration 1000.0 nM
[17] = target: Maternal embryonic leucine zipper kinase (Homo sapiens) (UniProt Q14680); conditions: Compound concentration 1000.0 nM
[18] = target: Mitogen-activated protein kinase kinase kinase 9 (Homo sapiens) (UniProt P80192); conditions: Compound concentration 1000.0 nM
[19] = target: Mitogen-activated protein kinase kinase kinase 11 (Homo sapiens) (UniProt Q16584); conditions: Compound concentration 1000.0 nM
[20] = target: Serine/threonine-protein kinase 24 (Homo sapiens) (UniProt Q9Y6E0); conditions: Compound concentration 1000.0 nM
[21] = target: Serine/threonine-protein kinase Nek6 (Homo sapiens) (UniProt Q9HC98); conditions: Compound concentration 1000.0 nM
[22] = target: Serine/threonine-protein kinase Nek7 (Homo sapiens) (UniProt Q8TDX7); conditions: Compound concentration 1000.0 nM
[23] = target: Serine/threonine-protein kinase Nek9 (Homo sapiens) (UniProt Q8TD19); conditions: Compound concentration 1000.0 nM
[24] = target: 1-phosphatidylinositol 3-phosphate 5-kinase (Homo sapiens) (UniProt Q9Y2I7); conditions: Compound concentration 1000.0 nM
[25] = target: Serine/threonine-protein kinase pim-2 (Homo sapiens) (UniProt Q9P1W9); conditions: Compound concentration 1000.0 nM
[26] = target: Phosphatidylinositol 5-phosphate 4-kinase type-2 beta (Homo sapiens) (UniProt P78356); conditions: Compound concentration 1000.0 nM
[27] = target: Serine/threonine-protein kinase PLK1 (Homo sapiens) (UniProt P53350); conditions: Compound concentration 1000.0 nM
[28] = target: Protein kinase C theta type (Homo sapiens) (UniProt Q04759); conditions: Compound concentration 1000.0 nM
[29] = target: Ribosomal protein S6 kinase alpha-2 (Homo sapiens) (UniProt Q15349); conditions: Compound concentration 1000.0 nM
[30] = target: Proto-oncogene tyrosine-protein kinase Src (Homo sapiens) (UniProt P12931); conditions: Compound concentration 1000.0 nM
[31] = target: SRSF protein kinase 2 (Homo sapiens) (UniProt P78362); conditions: Compound concentration 1000.0 nM
[32] = target: SRSF protein kinase 3 (Homo sapiens) (UniProt Q9UPE1); conditions: Compound concentration 1000.0 nM
[33] = target: Serine/threonine-protein kinase 16 (Homo sapiens) (UniProt O75716); conditions: Compound concentration 1000.0 nM
[34] = target: Tyrosine-protein kinase receptor Tie-1 (Homo sapiens) (UniProt P35590); conditions: Compound concentration 1000.0 nM
[35] = target: Tyrosine-protein kinase TXK (Homo sapiens) (UniProt P42681); conditions: Compound concentration 1000.0 nM
[36] = target: Tyrosine-protein kinase receptor TYRO3 (Homo sapiens) (UniProt Q06418); conditions: Compound concentration 1000.0 nM
[37] = target: Tyrosine-protein kinase ZAP-70 (Homo sapiens) (UniProt P43403); conditions: Compound concentration 1000.0 nM
[38] = target: T1, 5-hydroxytryptamine receptor 2C (Homo sapiens) (UniProt P28335); conditions: Compound concentration 10.0 uM
T1 sequence (whole entry): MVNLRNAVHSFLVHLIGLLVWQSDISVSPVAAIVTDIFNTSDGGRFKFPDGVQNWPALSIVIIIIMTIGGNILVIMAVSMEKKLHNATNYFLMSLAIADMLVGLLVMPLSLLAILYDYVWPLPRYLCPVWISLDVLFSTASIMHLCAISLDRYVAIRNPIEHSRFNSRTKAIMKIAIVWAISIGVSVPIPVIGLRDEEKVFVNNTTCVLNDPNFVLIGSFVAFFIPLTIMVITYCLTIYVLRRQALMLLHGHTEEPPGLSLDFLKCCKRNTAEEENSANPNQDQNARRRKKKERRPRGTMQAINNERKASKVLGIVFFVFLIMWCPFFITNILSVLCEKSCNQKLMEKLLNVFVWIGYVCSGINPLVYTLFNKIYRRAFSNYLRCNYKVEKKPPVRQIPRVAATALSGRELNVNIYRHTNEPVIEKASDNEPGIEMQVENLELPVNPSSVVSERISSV

[39] = target: Histamine H4 receptor (Homo sapiens) (UniProt Q9H3N8); conditions: Compound concentration 10.0 uM
Sequence of Histamine H4 receptor (Homo sapiens) (Q9H3N8 whole entry): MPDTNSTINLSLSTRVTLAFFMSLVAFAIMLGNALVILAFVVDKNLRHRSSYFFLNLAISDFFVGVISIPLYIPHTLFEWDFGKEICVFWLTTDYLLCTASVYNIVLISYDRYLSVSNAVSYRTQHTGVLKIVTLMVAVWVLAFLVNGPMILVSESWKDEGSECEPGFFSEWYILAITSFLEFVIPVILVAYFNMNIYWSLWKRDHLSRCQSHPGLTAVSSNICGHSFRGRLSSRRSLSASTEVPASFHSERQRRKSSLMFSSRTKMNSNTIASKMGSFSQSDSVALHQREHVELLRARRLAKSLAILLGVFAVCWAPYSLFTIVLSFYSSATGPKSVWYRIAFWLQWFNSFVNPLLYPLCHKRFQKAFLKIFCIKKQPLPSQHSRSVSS

Sequence of Mitogen-activated protein kinase kinase kinase kinase 3 (Homo sapiens) (Q8IVH8 whole entry): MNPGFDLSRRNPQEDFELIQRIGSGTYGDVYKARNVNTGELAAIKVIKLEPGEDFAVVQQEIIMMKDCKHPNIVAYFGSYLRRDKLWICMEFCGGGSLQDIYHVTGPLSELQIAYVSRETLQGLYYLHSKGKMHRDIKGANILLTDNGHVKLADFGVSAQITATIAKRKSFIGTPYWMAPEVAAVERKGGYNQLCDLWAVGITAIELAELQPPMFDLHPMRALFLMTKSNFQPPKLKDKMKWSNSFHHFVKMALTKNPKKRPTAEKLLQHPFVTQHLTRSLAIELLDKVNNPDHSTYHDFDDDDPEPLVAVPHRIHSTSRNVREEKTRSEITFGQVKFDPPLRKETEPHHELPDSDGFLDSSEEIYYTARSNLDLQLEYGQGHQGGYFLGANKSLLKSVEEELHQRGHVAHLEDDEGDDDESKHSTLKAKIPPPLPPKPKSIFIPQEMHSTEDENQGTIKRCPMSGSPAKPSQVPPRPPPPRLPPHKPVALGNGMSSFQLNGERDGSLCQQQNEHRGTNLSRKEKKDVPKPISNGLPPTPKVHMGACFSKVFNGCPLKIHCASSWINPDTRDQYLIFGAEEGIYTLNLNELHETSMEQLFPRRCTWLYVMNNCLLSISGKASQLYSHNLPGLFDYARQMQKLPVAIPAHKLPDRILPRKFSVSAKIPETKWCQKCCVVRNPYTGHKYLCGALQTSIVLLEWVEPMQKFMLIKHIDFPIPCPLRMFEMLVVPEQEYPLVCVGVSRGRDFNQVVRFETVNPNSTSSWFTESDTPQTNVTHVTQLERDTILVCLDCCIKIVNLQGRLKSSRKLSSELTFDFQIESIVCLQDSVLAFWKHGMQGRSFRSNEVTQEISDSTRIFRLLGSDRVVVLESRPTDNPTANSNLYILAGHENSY
Sequence of Serine/threonine-protein kinase PLK1 (Homo sapiens) (P53350 whole entry): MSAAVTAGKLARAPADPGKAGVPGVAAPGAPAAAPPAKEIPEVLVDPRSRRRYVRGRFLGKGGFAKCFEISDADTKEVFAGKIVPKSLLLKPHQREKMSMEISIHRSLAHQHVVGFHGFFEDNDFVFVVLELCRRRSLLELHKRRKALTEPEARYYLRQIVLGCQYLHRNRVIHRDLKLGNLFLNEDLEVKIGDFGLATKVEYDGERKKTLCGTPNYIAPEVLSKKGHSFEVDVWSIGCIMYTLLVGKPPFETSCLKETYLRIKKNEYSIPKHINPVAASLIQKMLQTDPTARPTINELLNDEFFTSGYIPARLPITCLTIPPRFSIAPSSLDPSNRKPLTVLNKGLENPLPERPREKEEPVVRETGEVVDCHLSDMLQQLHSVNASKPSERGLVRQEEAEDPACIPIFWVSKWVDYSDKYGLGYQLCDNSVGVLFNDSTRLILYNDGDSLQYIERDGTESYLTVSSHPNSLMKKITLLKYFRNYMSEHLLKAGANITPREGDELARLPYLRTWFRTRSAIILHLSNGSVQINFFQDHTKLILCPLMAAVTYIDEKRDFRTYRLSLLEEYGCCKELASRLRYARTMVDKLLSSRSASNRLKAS
Sequence of Tyrosine-protein kinase ZAP-70 (Homo sapiens) (P43403 whole entry): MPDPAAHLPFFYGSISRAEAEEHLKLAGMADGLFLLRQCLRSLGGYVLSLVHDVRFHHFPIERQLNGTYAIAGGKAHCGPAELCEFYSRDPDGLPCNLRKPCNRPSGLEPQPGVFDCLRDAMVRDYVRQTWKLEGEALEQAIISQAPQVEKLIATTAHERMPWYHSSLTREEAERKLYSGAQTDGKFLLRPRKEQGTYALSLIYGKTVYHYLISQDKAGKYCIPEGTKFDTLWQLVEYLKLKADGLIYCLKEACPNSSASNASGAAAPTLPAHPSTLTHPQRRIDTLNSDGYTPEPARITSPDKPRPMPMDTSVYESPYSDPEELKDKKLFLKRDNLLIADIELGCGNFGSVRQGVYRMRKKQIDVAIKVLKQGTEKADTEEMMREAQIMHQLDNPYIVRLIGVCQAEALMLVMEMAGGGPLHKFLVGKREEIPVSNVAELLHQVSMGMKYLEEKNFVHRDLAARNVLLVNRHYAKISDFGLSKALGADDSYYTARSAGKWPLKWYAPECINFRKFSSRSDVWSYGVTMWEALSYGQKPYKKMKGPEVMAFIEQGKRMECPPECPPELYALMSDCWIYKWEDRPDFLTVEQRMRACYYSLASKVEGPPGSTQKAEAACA
Sequence of Serine/threonine-protein kinase 24 (Homo sapiens) (Q9Y6E0 whole entry, looked up): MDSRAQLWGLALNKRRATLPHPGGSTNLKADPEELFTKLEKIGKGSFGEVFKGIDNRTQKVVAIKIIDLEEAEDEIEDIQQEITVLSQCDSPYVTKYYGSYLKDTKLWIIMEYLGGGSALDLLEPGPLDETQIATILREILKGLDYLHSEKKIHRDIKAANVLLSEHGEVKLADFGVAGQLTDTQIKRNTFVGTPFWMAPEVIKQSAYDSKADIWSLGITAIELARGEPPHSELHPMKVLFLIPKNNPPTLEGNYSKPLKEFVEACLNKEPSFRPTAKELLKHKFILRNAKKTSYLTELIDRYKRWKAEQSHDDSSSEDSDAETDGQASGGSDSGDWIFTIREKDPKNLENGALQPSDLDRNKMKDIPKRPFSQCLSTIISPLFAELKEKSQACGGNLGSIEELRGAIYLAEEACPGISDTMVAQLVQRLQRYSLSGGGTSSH
Sequence of Serine/threonine-protein kinase Nek7 (Homo sapiens) (Q8TDX7 whole entry, looked up): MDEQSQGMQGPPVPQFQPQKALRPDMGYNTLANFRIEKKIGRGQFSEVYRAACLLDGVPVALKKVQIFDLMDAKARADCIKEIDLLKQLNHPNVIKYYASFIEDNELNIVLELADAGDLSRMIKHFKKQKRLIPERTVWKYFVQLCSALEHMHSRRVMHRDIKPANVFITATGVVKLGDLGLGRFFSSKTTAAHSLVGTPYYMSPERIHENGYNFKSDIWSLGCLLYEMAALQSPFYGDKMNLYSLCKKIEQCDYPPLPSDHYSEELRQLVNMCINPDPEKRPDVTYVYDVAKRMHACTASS
Sequence of Mitogen-activated protein kinase kinase kinase 4 (Homo sapiens) (Q9Y6R4 whole entry): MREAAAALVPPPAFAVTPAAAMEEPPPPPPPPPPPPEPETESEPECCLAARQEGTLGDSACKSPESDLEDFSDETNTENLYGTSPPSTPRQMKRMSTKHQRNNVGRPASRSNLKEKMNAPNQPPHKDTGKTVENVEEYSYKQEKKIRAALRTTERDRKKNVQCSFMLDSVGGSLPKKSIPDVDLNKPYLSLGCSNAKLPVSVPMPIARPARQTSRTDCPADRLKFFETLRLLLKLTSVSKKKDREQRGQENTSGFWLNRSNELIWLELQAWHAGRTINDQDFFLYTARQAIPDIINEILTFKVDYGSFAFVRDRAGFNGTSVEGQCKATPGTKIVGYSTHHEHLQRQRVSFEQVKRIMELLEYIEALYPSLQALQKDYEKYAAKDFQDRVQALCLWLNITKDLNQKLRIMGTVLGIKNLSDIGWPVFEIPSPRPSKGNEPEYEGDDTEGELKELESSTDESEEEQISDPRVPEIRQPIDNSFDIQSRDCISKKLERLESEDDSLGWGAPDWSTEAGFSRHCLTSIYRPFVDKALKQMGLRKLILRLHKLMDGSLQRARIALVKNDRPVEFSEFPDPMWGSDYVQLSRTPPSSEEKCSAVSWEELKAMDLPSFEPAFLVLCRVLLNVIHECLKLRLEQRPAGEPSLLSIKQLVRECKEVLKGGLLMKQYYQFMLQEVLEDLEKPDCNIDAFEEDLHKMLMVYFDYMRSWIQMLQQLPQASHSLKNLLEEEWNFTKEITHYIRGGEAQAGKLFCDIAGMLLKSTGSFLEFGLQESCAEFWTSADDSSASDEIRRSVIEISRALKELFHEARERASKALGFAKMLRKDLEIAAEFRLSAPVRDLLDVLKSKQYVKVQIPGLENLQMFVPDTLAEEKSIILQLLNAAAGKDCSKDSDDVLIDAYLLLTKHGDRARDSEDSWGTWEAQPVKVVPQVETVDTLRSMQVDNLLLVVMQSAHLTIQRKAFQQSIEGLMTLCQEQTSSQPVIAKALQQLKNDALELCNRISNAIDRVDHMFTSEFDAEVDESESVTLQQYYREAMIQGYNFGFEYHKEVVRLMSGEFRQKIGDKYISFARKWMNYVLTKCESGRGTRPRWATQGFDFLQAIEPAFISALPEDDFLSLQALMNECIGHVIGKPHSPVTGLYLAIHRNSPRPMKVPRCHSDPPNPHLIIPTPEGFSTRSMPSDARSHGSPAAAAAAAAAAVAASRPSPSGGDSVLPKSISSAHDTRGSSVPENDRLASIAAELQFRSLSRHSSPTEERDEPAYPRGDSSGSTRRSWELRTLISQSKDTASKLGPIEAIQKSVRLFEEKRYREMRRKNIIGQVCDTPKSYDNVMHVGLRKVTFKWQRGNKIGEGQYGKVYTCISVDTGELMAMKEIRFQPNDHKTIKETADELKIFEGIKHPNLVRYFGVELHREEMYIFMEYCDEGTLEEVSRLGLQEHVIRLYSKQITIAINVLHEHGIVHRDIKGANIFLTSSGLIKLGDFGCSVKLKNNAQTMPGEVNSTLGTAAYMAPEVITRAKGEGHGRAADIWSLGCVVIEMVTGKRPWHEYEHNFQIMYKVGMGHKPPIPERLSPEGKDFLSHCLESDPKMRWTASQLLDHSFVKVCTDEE

O=C(NCc1ncc(C(F)(F)F)cc1Cl)c1ccc2c(c1)C1(CCS(=O)(=O)CC1)[C@H](C1CC1)N2S(=O)(=O)c1ccc(F)cc1 [BAY-784]
inactive: residual activity [1] 57% | residual activity [2] 85% | residual activity [3] 86% | residual activity [4] 97% | residual activity [5] 100% | residual activity [6] 83% | residual activity [7] 100% | residual activity [8] 100% | residual activity [9] 100% | residual activity [10] 100% | residual activity [11] 87% | residual activity [12] 92% | residual activity [13] 100% | residual activity [14] 100% | residual activity [15] 100% | residual activity [16] 54% | residual activity [17] 54% | residual activity [18] 100% | residual activity [19] 100% | residual activity [20] 100% | residual activity [21] 100% | residual activity [22] 100% | residual activity [23] 100% | residual activity [24] 84% | residual activity [25] 94% | residual activity [26] 89% | residual activity [27] 86% | residual activity [28] 100% | residual activity [29] 99% | residual activity [30] 98% | residual activity [31] 91% | residual activity [32] 100% | residual activity [33] 88% | residual activity [34] 100% | residual activity [35] 100% | residual activity [36] 100% | residual activity [37] 84% | inhibition [38] 9.65% | inhibition [39] -9.53%

O=C(NCc1ncc(C(F)(F)F)cc1Cl)c1ccc2c(c1)C1(CCS(=O)(=O)CC1)[C@@H](C1CC1)N2S(=O)(=O)c1ccc(F)cc1 [BAY-786]
inactive: residual activity [1] 72% | residual activity [2] 100% | residual activity [3] 100% | residual activity [4] 96% | residual activity [5] 85% | residual activity [6] 74% | residual activity [7] 100% | residual activity [8] 100% | residual activity [9] 79% | residual activity [10] 100% | residual activity [11] 77% | residual activity [12] 86% | residual activity [13] 100% | residual activity [14] 84% | residual activity [15] 100% | residual activity [16] 61% | residual activity [17] 100% | residual activity [18] 77% | residual activity [19] 100% | residual activity [20] 100% | residual activity [21] 95% | residual activity [22] 65% | residual activity [23] 72% | residual activity [24] 73% | residual activity [25] 92% | residual activity [26] 89% | residual activity [27] 82% | residual activity [28] 95% | residual activity [29] 100% | residual activity [30] 98% | residual activity [31] 100% | residual activity [32] 100% | residual activity [33] 99% | residual activity [34] 95% | residual activity [35] 83% | residual activity [36] 84% | residual activity [37] 72% | inhibition [38] 16.9% | inhibition [39] -6.68%
